Results as given in US11754555B2, “Pad for immunochromatographic device and immunochromatographic device, immunochromatographic kit and immunochromatographic detection method using pad” (TANAKA KIKINZOKU KOGYO K.K., priority 2018, dated 2023).

Key:
[1] = tested on: inactivated Group A β-hemolytic streptococcus; test: Visual evaluation of red line on detection part of immunochromatographic device; settings: for Result of Visual Evaluation (After Storage at 50° C. for 24 Hours): device stored at 50° C. for 24 hours, then positive analyte sample 5×10^5 org/mL, 5 minutes; for Result of Visual Evaluation (After 5 Minutes): positive analyte sample 5×10^5 org/mL, 150 μL, member order of FIG. 3, acid content per pad as in Table 1
Experimental: (§1) The immunochromatographic device and the analyte dilution solution produced above were used, and a sample obtained by adding inactivated Group A β-hemolytic streptococcus at 5×10^5 org/mL was used as a positive analyte sample.
The analyte sample in an amount of 150 μL was dropped to the sample droplet receiving part of the device and developed, and a visual evaluation was made after 5 minutes. Any of the following marks was given: “+” (positive) when the red line on the detection part (4) could be visually observed; “++” (strong positive) when the red line could be visually observed clearly; “±” (weak positive) when a light red line could be visually observed; and “−” (negative) when the red line could not be visually observed.
Separately from the above evaluation, the immunochromatographic device produced above were stored at 50° C. for 24 hours, and then the measurement and the visual evaluation were conducted. […]
Immunochromatographic kits were produced and measurement was conducted in the same manners as in Example 1 except that the kind of the acid anhydride in Example 1 was changed to those shown in Table 1.

[2] = tested on: inactivated Group A β-hemolytic streptococcus; test: Color intensity of red line on detection part measured with immunochromatoreader
Experimental: as §1
The color intensity of the red line on the detection part (4) five minutes after starting development was measured with an immunochromatoreader (manufactured by Hamamatsu Photonics K.K.). As a result, the color intensity was 83.7 mAbs.
An immunochromatographic kit was produced in the same manner as in Example 1 except that the sample droplet receiving member (1), the acid anhydride containing member (7), the labeling substance retaining member (2), the chromatography medium member (3) having the detection part (4) and the absorption member (5) were pasted to a base material composed of a backing sheet (6) in a manner that the members were linked in this order along the direction of sample development (the order shown in FIG. 1), and the color intensity was measured with an immunochromatoreader (manufactured by Hamamatsu Photonics K.K.). As a result, the color intensity after five minutes was 48.1 mAbs.
An immunochromatographic kit was produced in the same manner as in Example 3 except that “malic acid” was used instead of “bicyclo[2,2,2]oct-7-ene-2,3,5,6-tetracarboxylic dianhydride”, which is the acid anhydride, and the color intensity after five minutes was measured with an immunochromatoreader (manufactured by Hamamatsu Photonics K.K.). As a result, the color intensity was 4.1 mAbs.

[3] = Sublimation at 25° C. at 20 Pa (weight change after 12 hours under reduced pressure); assay type: physicochemical; settings: 1 g acid, reduced pressure 25° C., weight change within or exceeding 5%
Experimental: Whether the acids used in the Examples and the Comparative Examples sublimate at 25° C. at 20 Pa was examined by the following method. First, 1 g of an acid was measured in a glass vial, and the weight was measured after subjecting the acid to reduced pressure at 25° C. at 20 Pa for 12 hours.

[4] = five minutes after starting development, member order of FIG. 3 (acid-containing member downstream of labeling member)

| Molecule | Result of Visual Evaluation (After Storage at 50° C. for 24 Hours) [1] | Result of Visual Evaluation (After 5 Minutes) [1] | color intensity of the red line on the detection part (4) [2, 4] [mAbs] | Sublimation at 25° C. at 20 Pa [3] | color intensity of the red line on the detection part (4) ([2]; after five minutes, member order of FIG. 1 (acid anhydride member upstream of labeling member)) [mAbs] |
| --- | --- | --- | --- | --- | --- |
| O=C(O)CC(O)C(=O)O (stereo not drawn) [compound 3, malic acid] | − | − | 4.1 |  |  |
| O=C1CC(C2CC3C(=O)OC(=O)C3c3ccccc32)C(=O)O1 (stereo not drawn) [Example 6, 4-(2,5-dioxotetrahydrofuran-3-yl)-1,2,3,4-tetrahydronaphthalene-1,2-dicarboxylic anhydride] | ++ | ++ |  | A (“A” indicates that the acid did not sublimate) |  |
| octadecenylsuccinic anhydride [Reference Example 2] | ± | ± |  | A (“A” indicates that the acid did not sublimate) |  |
| C=C(CC(=O)O)C(=O)O [compound 4, itaconic acid] | − | − |  |  |  |
| O=C1OC(=O)[C@@H]2CC=CC[C@H]12 [Comparative Example 9, cis-4-cyclohexene-1,2-dicarboxylic anhydride] | − | + |  | A (“A” indicates that the acid did not sublimate) |  |
| O=C1OC(=O)C2C3C=CC(C12)C1C(=O)OC(=O)C31 (stereo not drawn) [Example 1, bicyclo[2,2,2]oct-7-ene-2,3,5,6-tetracarboxylic dianhydride] | ++ | ++ | 83.7 | A (“A” indicates that the acid did not sublimate) | 48.1 |
| O=C1CCC(=O)O1 [compound 2, succinic anhydride] | − | ++ |  | B (“B” indicates that the acid sublimated) |  |
| O=C(ON1C(=O)CCC1=O)c1ccccc1 [Comparative Example 1, N-(benzoyloxy)succinimide] | − | − |  |  |  |
| O=C(O)CN(CCO)CCO [compound 5, N,N-bis(2-hydroxyethyl)glycine] | − | − |  |  |  |
| O=C1OC(=O)C2CC3C(=O)OC(=O)C3CC12 (stereo not drawn) [Example 5, 1,2,4,5-cyclohexanetetracarboxylic dianhydride] | ++ | ++ |  | A (“A” indicates that the acid did not sublimate) |  |
| CCCCCCCC/C=C\CCCCCCCC(=O)O [compound 6, oleic acid] | − | − |  |  |  |
| CC(=O)Nc1cccc2c1C(=O)OC2=O [Example 4, 3-acetamidophthalic anhydride] | + | + |  | A (“A” indicates that the acid did not sublimate) |  |
| O=C1CC(c2ccccc2)C(=O)O1 (stereo not drawn) [compound 8, phenylsussinic acid anhydride] | − | + |  | A (“A” indicates that the acid did not sublimate) |  |
| N[C@@H](CCC(=O)O)C(=O)O [compound 7, glutamic acid] | − | − |  |  |  |
| O=c1oc(=O)c2cc3c(=O)oc(=O)c3cc12 [Example 2, pyromellitic anhydride] | ++ | ++ |  | A (“A” indicates that the acid did not sublimate) |  |
| CC#Cc1ccc2c(c1)C(=O)OC2=O [Example 3, 4-(1-propynyl)phthalic anhydride] | + | + |  | A (“A” indicates that the acid did not sublimate) |  |
